Assay results as given in patent US20250296971A1, “GASTRIC INHIBITORY PEPTIDE RECEPTOR LIGANDS” (priority 2021, published 2025).
*1 amine or outer side, *2 acyl side, *3 side chain or, on linkers, in order; H or OH if unused. Where a SMILES comes first, the peptide text is derived from it. Bridges are numbered along the chain shown (N, C = ends). [ ]: non-standard residue; d: D form. The star is where a group is joined. NH(1-deoxy-D-glucityl) = OC[C@@H](O)[C@@H](O)[C@H](O)[C@@H](O)CN*; DOTA = O=C(O)CN1CCN(CC(=O)O)CCN(CC(=O)*)CCN(CC(=O)O)CC1; Trp(5-Cl) = N[C@@H](Cc1c[nH]c2ccc(Cl)cc12)C(=O)O; Pyridine(2,6-diCH2) = c1cc(C[*:1])nc(C[*:2])c1; Pro(4R-NH2) = N[C@H]1CN[C@H](C(=O)O)C1; Glutaryl = O=C(CCCC(=O)[*:2])[*:1]; X1 = O=C(CN1CCC(N[*:1])CC1)[*:2]; Api = NC1(C(=O)O)CCNCC1

How the values were obtained:
Dog GIPR = target: T1, Dog GIPR (Canis lupus familiaris, UniProt A0A8I3MPG1); assay: Radioligand binding assay, dog GIPR; conditions: 111In-labeled compound, 6 h, 37° C., read-out: pKD Category (converted)
T1 construct: host or cells: CHO-VGT
T1 sequence (A0A8I3MPG1 24-449): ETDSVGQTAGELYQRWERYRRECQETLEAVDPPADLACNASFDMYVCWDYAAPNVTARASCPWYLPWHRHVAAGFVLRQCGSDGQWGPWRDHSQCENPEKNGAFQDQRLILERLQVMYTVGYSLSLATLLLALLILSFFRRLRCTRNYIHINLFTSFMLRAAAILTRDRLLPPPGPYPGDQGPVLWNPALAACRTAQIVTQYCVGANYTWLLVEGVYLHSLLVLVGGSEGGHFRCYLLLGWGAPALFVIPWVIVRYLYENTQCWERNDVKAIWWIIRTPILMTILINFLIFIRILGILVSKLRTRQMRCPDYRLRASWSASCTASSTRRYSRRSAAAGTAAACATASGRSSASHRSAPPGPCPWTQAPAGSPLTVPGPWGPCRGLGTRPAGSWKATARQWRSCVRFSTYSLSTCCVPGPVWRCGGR
Procedure: In order to assess the affinity of ^111In-labeled compounds to the GIPR receptor of different species, a radioligand binding assay was established.
CHO-K1 cells (GenScript Biotech, #M00486) were stably transfected with the human GIPR. CHO-K1-hGIPR cells were cultured in Ham's F12 medium (Sigma-Aldrich, #N4888) including 10% fetal calf serum (FCS), 2 mM L-glutamine, 100 U/mL penicillin, 100 µg/mL streptomycin, 200 µg/mL Zeocin and 100 µg/mL HygromycinB. To evaluate the species cross-reactivity, CHO-VGT cells were transfected with the human, dog, rat and mouse GIPR (Inscreenex GmbH), which were cultured in DMEM/Ham's F12 Medium 1:1 (Biochrom, #F485) including 5% fetal calf serum (FCS), 2 mM L-glutamine, 100 U/mL penicillin and 100 μg/mL streptomycin. Cells were detached with Accutase (Biolegend, #BLD-423201) and counted using a particle counter (CASY Model TT; Schärfe Systems). Cell concentrations were adjusted to 3×10^5 mL^−1, and 1.000 μL of the suspension per well were dispensed into flat-clear-bottom 24 well plates.
Approximately 24 hours after re-seeding, the medium was aspirated and the cells were washed once with 700 μL assay medium (Ham's medium with 20 mM HEPES). […]
At the end of incubation time, cells were washed and subsequently harvested in 300 μL RIPA buffer containing PIC. Radioactivity of the cell lysate of each well was counted using a gamma counter (Perkin Elmer). […]

[1] = Plasma stability assay, human plasma; format: in vitro ADME; conditions: 37° C., % intact compound remaining after 4 h or 24 h
Procedure: In order to determine the stability of selected compounds of the invention in human and mouse plasma, a plasma stability assay was carried out. Such plasma stability assay measures degradation of compounds of the present invention in blood plasma. This is an important characteristic of a compound as compounds, with the exception of pro-drugs, which rapidly degrade in plasma, generally show poor in vivo efficacy. […] The stability is sufficient for the diagnostic, therapeutic and theragnostic use of these compounds according to the present invention.
The plasma stability samples were prepared by spiking 50 μL plasma aliquots (all K2EDTA) with 1 μL of a 0.5 mM compound stock solution in DMS0. After vortexing the samples were incubated in a Thermomixer at 37° C. for 0, 4 and 24 hours. After incubation the samples were stored on ice until further treatment. All samples were prepared in duplicates.
A suitable internal standard was added to each sample (1 μL of a 0.5 mM stock solution in DMSO). Protein precipitation was performed by addition of 250 μL of acetonitrile containing 1% trifluoroacetic acid. After incubation at room temperature for 30 min the precipitate was separated by centrifugation and 150 μL of the supernatant was diluted with 150 μL of 1% aqueous formic acid.
Additionally, recovery was determined by spiking a pure plasma sample that only contained the internal standard after treatment with a certain amount of the compound.
Carry-over was evaluated by analysis of a blank sample (20% acetonitrile) after the highest calibration sample.

[2] = target: Recombinant soluble human NEP (Homo sapiens, UniProt P08473); assay: Proteolytic stability assay against NEP; conditions: NEP 100 ng/mL, compound 10 μM, 37° C., % intact compound remaining
[3] = Plasma stability assay, mouse plasma; format: in vitro ADME; conditions: 37° C., % intact compound remaining after 4 h or 24 h
How it was run: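 K2EDTA mouse or human plasma spiked with compound from 0.5 mM DMSO stock, incubated at 37 °C for 0, 4 and 24 h in duplicate. Proteins precipitated with acetonitrile/1% TFA, internal standard added; recovery and carry-over evaluated.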

Recombinant soluble human NEP, sequence (P08473 52-750 limits assumed): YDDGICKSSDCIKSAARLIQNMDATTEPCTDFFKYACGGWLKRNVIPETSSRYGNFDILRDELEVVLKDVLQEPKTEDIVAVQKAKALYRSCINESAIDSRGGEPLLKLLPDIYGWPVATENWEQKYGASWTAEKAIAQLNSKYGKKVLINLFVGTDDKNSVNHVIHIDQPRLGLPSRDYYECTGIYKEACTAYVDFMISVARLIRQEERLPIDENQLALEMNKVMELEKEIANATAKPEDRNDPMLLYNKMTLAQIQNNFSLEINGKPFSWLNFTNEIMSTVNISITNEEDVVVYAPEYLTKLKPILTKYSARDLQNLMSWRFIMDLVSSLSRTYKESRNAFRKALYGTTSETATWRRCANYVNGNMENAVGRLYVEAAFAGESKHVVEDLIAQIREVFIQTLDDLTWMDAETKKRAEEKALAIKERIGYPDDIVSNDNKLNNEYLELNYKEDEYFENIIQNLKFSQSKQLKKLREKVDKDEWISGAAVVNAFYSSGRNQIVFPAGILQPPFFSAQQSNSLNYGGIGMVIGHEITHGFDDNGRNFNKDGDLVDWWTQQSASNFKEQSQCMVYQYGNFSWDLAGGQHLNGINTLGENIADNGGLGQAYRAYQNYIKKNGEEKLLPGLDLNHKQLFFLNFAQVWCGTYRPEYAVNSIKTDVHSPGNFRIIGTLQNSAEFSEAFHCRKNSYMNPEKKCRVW

Compound: CC[C@H](C)[C@@H]1NC(=O)[C@H](CC(C)C)NC(=O)C2(CCN(C(=O)CN3CCN(CC(=O)O)CCN(CC(=O)O)CCN(CC(=O)O)CC3)CC2)NC(=O)[C@@H](NC(=O)[C@@H](CC(C)C)NC(=O)[C@H](CCC(=O)O)NC(=O)[C@@H]2C[C@@H](N)CN2C(=O)[C@H](Cc2c[nH]c3ccc(Cl)cc23)NC(=O)[C@H](Cc2c[nH]c3ccccc23)NC(=O)[C@H](CC(=O)O)NC(=O)CCCC(=O)NC[C@H](O)[C@@H](O)[C@H](O)[C@H](O)CO)CSCc2cccc(n2)CSC[C@@H](C(=O)NC2CCN(CC(=O)N[C@H](CCC(=O)NC[C@H](O)[C@@H](O)[C@H](O)[C@H](O)CO)C(N)=O)CC2)NC1=O [GIP-001, AGLU-Glutar-Asp-Trp-5Clw-Tap-Glu-leu-[Cys(2Lut)-Apc(DOTA)-Leu-Ile-Cys]-APAc-glu(AGLU)-NH2] ({NH(1-deoxy-D-glucityl)-Glutaryl}-DW[Trp(5-Cl)][Pro(4R-NH2)]E[dL]C[Api](DOTA)LIC[X1][dE](NH(1-deoxy-D-glucityl))-NH2; linker 7-11 via Pyridine(2,6-diCH2))
- Kd (Dog GIPR): < 0.316 nM
- Human plasma stability category [1]: A (>80% intact after 24 hours)
- NEP stability category [2]: A (>80% intact after 24 hours)
- Mouse plasma stability category [3]: A (>80% intact after 24 hours)
